Test results reported in patent US12653865B2, “Dual-agonist compound for both GLP-1 and GIP receptors and application thereof” (Jiangsu Hengrui Pharmaceuticals Co., Ltd., priority 2020, dated 2026).
*1 amine or outer side, *2 acyl side, *3 side chain or, on linkers, in order; H or OH if unused. Where a SMILES comes first, the peptide text is derived from it. Side-chain parts run from the residue outwards. [ ]: non-standard residue; d: D form. The star is where a group is joined. C20 diacid = O=C(O)CCCCCCCCCCCCCCCCCCC(=O)*; γGlu = O=C(O)[C@H](CCC(=O)[*:2])N[*:1]; AEEA = NCCOCCOCC(=O)O; Aib = CC(C)(N)C(=O)O

Experiments:
diet-induced obese mice = assay: Body weight and fat mass in diet-induced obese mice; assay type: in vivo, C57BL/6 mice; conditions: induced obese mice, 10 nmol/kg sc
Protocol: High-fat food-induced obese male C57BL/6 mice (weighing 35-55 g, aged 10-12 weeks, purchased from Shanghai Jiesijie Laboratory Animal Co., Ltd.) were tested. […] According to the experimental design, the body weight of each mouse was measured and recorded on day 0, day 3, day 6 and so on to day 27, the average body weight of each group of mice was calculated, and weight change curves were plotted by taking the body weight on the first day as the standard. At the end, the fat and other visceral organs of each part of the mice were taken out and weighed, and the viscera/brain ratio for fat in each part of each mouse was calculated. The effect of the drug on the fat was determined by comparing the change in the organ/brain ratio for fat of different parts of each group of mice.

[1] = Stability in human plasma (LC-MS); assay type: in vitro ADME; conditions: 0 min (standard 100%)
Protocol: 5 μL of each of samples at concentrations of 20 ng/mL, 50 ng/mL, 100 ng/mL, 200 ng/mL, 500 ng/mL, 1000 ng/mL, 2000 ng/mL, 5000 ng/mL and 10000 ng/mL was added to 45 μL of human plasma. The content of the compounds in the samples was determined by the LC-MS method and a standard curve was formed. 5 μL of a 1 mg/mL polypeptide solution was added to 45 μL of human plasma. […] With the content at 0 min as the standard (100%), the relative content of the retained compounds in the samples at other time points was calculated.

normal mice = assay: Blood glucose in normal mice after single subcutaneous injection and intraperitoneal glucose; assay type: in vivo, C57BL/6 mice; conditions: 10 nmol/kg sc; for Blood glucose: glucose ip 18 h later
Protocol: 18 h later, a glucose solution at a concentration of 0.2 g/mL was intraperitoneally injected. Blood glucose values were measured by collecting blood from the tail of mice at time points of 0 min, 15 min, 30 min, 60 min, and 120 min according to the experimental design. The specific procedures were as follows: the mouse was physically immobilized with the tail exposed, and a little was cut off the tail, then the tail was squeezed to bleed, and blood glucose was determined using a Roche active glucometer after the 1 st drop of blood was discarded. The area under the blood glucose curve (AUC) was calculated from the results of all points.

CC[C@H](C)[C@H](NC(=O)[C@H](CCCCN)NC(=O)[C@H](CC(=O)O)NC(=O)[C@H](CCCCNC(=O)COCCOCCNC(=O)COCCOCCNC(=O)CC[C@H](NC(=O)CCCCCCCCCCCCCCCCCCC(=O)O)C(=O)O)NC(=O)[C@H](Cc1ccc(O)cc1)NC(=O)[C@@H](NC(=O)[C@H](CO)NC(=O)[C@H](Cc1ccc(O)cc1)NC(=O)[C@H](CC(=O)O)NC(=O)[C@H](CO)NC(=O)[C@@H](NC(=O)[C@H](Cc1ccccc1)NC(=O)[C@@H](NC(=O)CNC(=O)[C@H](CCC(=O)O)NC(=O)C(C)(C)NC(=O)[C@@H](N)Cc1ccc(O)cc1)[C@@H](C)O)[C@@H](C)O)[C@@H](C)CC)C(=O)N[C@@H](C)C(=O)N[C@@H](C)C(=O)N[C@@H](CCC(N)=O)C(=O)N[C@@H](CCC(=O)O)C(=O)N[C@@H](Cc1ccccc1)C(=O)N[C@H](C(=O)N[C@@H](CC(N)=O)C(=O)N[C@@H](Cc1c[nH]c2ccccc12)C(=O)N[C@@H](CC(C)C)C(=O)N[C@@H](CC(C)C)C(=O)N[C@@H](C)C(=O)NCC(=O)NCC(=O)N1CCC[C@H]1C(=O)N[C@@H](CO)C(=O)N[C@@H](CO)C(=O)NCC(=O)N[C@@H](C)C(=O)N1CCC[C@H]1C(=O)N1CCC[C@H]1C(=O)N1CCC[C@H]1C(=O)N[C@@H](CO)C(N)=O)C(C)C [Compound 7#] (H-Y[Aib]EGTFTSDYSIYK([AEEA-AEEA-γGlu-C20 diacid])DKIAAQEFVNWLLAGGPSSGAPPPS-NH2)
Changes in body weight (diet-induced obese mice; Day 1): 0%
Changes in body weight (diet-induced obese mice; Day 4): −11.0%
Changes in body weight (diet-induced obese mice; Day 7): −17.6%
Changes in body weight (diet-induced obese mice; Day 10): −22.6%
Changes in body weight (diet-induced obese mice; Day 13): −22.3%
Changes in body weight (diet-induced obese mice; Day 16): −22.7%
Changes in body weight (diet-induced obese mice; Day 19): −25.9%
Changes in body weight (diet-induced obese mice; Day 22): −23.9%
Changes in body weight (diet-induced obese mice; Day 25): −23.9%
Changes in body weight (diet-induced obese mice; Day 28): −25.5%
relative content of compounds retained in plasma [1]: 100.00%
reduction of area under the blood glucose curve compared to placebo (normal mice): more than 60%
Blood glucose (normal mice; 0 min): 4.4 ± 0.8 mmol/L
Blood glucose (normal mice; 15 min): 6.7 ± 0.8 mmol/L
Blood glucose (normal mice; 30 min): 6.2 ± 1.3 mmol/L
Blood glucose (normal mice; 60 min): 5.7 ± 1.2 mmol/L
Blood glucose (normal mice; 120 min): 3.8 ± 1.1 mmol/L
